Laboratory results published in ChEMBL document CHEMBL5291721, “A preclinical secondary pharmacology resource illuminates target-adverse drug reaction associations of marketed drugs” (Nat Commun, 2023).

How the values were obtained:
[1] = biological target: T1, 5-hydroxytryptamine receptor 1A (Homo sapiens, UniProt P08908); format: functional, cell-based
T1 sequence (P08908 whole entry): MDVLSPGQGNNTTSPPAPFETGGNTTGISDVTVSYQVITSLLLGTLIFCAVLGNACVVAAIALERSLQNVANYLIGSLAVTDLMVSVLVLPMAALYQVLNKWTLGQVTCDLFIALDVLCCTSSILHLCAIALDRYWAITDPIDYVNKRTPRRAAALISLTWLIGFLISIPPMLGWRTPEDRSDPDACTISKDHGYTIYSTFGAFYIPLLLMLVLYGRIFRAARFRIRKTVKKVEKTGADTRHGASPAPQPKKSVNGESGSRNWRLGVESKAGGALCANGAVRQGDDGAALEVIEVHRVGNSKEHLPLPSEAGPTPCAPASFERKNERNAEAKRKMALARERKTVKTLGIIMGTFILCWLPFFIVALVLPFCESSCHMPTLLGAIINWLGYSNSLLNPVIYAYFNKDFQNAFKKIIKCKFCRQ

[2] = biological target: 5-hydroxytryptamine receptor 2B (Homo sapiens, UniProt P41595); format: functional, cell-based
[3] = biological target: T2, Alpha-1A adrenergic receptor (Homo sapiens, UniProt P35348); format: functional, cell-based
T2 sequence (P35348 whole entry): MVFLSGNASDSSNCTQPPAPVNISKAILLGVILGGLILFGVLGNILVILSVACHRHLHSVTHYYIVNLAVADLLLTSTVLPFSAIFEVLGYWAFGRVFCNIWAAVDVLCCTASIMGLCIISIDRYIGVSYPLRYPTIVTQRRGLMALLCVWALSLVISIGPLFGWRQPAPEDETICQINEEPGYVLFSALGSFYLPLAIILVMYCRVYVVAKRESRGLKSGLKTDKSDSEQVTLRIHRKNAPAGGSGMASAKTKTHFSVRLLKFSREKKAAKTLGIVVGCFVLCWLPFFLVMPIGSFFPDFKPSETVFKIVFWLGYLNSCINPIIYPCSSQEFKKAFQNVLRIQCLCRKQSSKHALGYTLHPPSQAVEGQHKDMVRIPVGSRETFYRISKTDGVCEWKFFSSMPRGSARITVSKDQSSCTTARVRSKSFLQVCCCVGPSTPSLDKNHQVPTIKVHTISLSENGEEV

[4] = biological target: T3, Estrogen receptor (Homo sapiens, UniProt P03372)
T3 sequence (P03372 whole entry): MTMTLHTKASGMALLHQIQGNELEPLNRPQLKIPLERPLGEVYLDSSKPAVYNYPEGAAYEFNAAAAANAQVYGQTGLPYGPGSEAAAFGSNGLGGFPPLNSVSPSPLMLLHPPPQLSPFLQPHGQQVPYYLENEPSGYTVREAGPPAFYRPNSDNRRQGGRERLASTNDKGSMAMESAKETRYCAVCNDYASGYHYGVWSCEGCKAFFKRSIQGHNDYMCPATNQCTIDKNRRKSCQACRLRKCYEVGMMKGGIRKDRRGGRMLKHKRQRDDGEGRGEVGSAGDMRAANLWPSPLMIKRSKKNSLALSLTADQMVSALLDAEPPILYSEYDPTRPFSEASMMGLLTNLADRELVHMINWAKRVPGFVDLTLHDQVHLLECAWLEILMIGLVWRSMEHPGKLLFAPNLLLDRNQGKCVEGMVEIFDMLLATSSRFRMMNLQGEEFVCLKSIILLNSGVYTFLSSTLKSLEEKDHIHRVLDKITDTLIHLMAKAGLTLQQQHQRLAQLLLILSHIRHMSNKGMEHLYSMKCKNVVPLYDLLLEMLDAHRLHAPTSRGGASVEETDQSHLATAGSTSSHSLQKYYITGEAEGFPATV

[5] = biological target: T4, Gastrin/cholecystokinin type B receptor (Homo sapiens, UniProt P32239)
T4 sequence (P32239 whole entry): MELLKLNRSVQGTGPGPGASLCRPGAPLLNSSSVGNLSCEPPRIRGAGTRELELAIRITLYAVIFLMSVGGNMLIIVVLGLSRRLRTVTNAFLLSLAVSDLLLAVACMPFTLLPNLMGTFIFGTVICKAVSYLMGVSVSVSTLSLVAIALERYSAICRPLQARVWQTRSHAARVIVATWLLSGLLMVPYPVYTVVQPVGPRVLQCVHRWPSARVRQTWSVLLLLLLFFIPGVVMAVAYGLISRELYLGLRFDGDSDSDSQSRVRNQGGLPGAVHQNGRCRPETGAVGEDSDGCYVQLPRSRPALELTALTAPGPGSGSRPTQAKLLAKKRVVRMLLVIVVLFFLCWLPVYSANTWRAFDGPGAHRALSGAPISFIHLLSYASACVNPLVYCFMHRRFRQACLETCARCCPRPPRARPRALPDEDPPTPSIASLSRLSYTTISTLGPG

[6] = biological target: Histamine H1 receptor (Homo sapiens, UniProt P35367)
[7] = biological target: Sodium-dependent noradrenaline transporter (Homo sapiens, UniProt P23975)
[8] = biological target: T5, Thromboxane A2 receptor (Homo sapiens, UniProt P21731); format: functional, cell-based
T5 sequence (P21731 whole entry): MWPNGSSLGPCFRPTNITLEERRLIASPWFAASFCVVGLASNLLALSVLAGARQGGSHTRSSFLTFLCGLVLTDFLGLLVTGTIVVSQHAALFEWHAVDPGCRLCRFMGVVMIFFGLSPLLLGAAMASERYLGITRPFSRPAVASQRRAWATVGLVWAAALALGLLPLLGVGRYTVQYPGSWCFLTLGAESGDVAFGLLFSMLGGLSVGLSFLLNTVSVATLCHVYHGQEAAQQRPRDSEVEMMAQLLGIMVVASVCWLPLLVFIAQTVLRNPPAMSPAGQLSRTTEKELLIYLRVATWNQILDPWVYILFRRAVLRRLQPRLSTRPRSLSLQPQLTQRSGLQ

[9] = biological target: 3',5'-cyclic-AMP phosphodiesterase 4A (Homo sapiens, UniProt P27815); format: functional
Note: assay procedure not described here.

Sequence of Histamine H1 receptor (P35367 whole entry): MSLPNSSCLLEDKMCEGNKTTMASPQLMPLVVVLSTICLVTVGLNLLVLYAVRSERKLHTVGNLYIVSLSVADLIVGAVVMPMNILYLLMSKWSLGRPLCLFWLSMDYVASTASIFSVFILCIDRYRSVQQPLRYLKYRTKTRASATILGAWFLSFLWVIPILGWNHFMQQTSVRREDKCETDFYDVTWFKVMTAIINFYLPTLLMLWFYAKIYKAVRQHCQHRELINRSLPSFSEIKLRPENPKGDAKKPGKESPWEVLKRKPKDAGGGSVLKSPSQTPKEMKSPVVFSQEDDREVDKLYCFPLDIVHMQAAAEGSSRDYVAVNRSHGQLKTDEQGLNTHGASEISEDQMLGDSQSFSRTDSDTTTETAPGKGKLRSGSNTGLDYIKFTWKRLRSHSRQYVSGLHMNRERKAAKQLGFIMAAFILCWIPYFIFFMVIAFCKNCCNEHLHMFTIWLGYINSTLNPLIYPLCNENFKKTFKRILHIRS
Sequence of 5-hydroxytryptamine receptor 2B (P41595 whole entry): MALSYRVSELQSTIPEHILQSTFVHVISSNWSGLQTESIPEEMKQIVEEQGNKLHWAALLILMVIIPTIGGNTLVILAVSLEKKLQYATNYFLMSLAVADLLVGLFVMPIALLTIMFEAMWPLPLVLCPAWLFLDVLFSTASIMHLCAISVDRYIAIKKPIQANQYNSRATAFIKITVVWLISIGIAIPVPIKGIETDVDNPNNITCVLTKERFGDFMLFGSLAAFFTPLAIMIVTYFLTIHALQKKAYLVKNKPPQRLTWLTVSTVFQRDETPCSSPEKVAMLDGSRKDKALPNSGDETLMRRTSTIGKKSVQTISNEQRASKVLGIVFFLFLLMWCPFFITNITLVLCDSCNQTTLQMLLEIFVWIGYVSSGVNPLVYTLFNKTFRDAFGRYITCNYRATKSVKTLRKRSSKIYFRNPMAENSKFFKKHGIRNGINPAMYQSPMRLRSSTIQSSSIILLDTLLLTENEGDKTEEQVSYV
Sequence of Sodium-dependent noradrenaline transporter (P23975 whole entry): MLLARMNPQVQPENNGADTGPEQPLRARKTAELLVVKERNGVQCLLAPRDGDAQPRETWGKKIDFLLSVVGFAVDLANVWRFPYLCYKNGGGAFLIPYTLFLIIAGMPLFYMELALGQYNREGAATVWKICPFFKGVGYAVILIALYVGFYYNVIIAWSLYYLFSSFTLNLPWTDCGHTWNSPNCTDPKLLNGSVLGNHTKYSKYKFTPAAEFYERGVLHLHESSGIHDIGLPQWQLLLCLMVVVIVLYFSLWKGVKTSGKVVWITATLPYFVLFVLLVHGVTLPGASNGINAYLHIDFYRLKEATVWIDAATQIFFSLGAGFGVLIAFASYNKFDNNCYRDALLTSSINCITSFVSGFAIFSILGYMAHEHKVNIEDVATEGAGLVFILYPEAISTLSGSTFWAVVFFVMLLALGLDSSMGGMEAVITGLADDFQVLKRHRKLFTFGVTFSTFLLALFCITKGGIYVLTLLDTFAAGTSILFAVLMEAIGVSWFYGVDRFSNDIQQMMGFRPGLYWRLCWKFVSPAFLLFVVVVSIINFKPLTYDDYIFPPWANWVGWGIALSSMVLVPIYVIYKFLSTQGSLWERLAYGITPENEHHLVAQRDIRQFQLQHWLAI
Sequence of 3',5'-cyclic-AMP phosphodiesterase 4A (P27815 whole entry): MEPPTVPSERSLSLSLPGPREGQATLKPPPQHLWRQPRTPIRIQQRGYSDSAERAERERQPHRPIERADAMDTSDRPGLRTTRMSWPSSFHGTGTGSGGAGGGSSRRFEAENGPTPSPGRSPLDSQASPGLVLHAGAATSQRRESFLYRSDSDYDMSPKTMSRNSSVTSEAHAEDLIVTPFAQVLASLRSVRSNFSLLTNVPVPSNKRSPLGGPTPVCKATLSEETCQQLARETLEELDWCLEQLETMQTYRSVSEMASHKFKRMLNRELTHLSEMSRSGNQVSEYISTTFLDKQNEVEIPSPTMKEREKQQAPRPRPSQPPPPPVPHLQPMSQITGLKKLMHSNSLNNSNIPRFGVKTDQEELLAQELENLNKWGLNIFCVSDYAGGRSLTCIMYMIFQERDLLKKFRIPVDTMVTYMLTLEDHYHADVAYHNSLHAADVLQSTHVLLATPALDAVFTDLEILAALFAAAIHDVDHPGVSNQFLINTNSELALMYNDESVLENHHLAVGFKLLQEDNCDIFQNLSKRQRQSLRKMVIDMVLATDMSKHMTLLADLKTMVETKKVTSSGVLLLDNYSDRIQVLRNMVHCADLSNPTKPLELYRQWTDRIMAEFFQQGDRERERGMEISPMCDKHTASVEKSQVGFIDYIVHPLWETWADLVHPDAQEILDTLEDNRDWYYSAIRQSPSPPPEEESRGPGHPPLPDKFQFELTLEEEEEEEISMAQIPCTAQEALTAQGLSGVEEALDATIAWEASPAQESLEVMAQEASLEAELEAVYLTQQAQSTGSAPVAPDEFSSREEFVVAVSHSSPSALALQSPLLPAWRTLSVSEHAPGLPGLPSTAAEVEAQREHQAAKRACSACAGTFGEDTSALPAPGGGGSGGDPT

| SMILES | AC50 [1] | AC50 [2] | AC50 [3] | AC50 [4] | AC50 [5] | AC50 [6] | AC50 [7] | AC50 [8] | AC50 [9] |
| --- | --- | --- | --- | --- | --- | --- | --- | --- | --- |
| CC(CCc1ccc(O)cc1)NCCc1ccc(O)c(O)c1 (stereo not given) [DOBUTAMINE] | > 10 µM | > 30 µM | 0.0054 µM | > 30 µM | > 30 µM | – | – | – | – |
| Clc1ccc2c(N3CCN(CCCN4CCN(c5ccnc6cc(Cl)ccc56)CC4)CC3)ccnc2c1 [PIPERAQUINE] | – | > 30 µM | > 30 µM | > 30 µM | > 30 µM | > 30 µM | – | – | – |
| CC1(C)S[C@@H]2[C@H](NC(=O)[C@H](N)c3ccccc3)C(=O)N2[C@H]1C(=O)OCOC(=O)[C@@H]1N2C(=O)C[C@H]2S(=O)(=O)C1(C)C [SULTAMICILLIN] | – | > 30 µM | > 30 µM | > 30 µM | > 30 µM | > 30 µM | – | – | – |
| CCCCC(=O)O[C@]1(C(=O)CO)[C@@H](C)C[C@H]2[C@@H]3CCC4=CC(=O)C=C[C@]4(C)[C@@]3(F)[C@@H](O)C[C@@]21C [BETAMETHASONE VALERATE] | – | > 10 µM | > 30 µM | > 30 µM | > 30 µM | > 10 µM | – | – | – |
| CC(C)[C@H](N)C(=O)OCC(CO)OCn1cnc2c(=O)nc(N)[nH]c21 (stereo not given in full) [VALGANCICLOVIR] | > 30 µM | > 30 µM | – | > 30 µM | > 30 µM | > 30 µM | – | – | – |
| CCC1(c2ccccc2)CCC(=O)NC1=O (stereo not given) [GLUTETHIMIDE] | > 30 µM | > 10 µM | > 30 µM | > 10 µM | – | > 10 µM | – | – | – |
| O=[N+]([O-])c1ccc(O)c2ncccc12 [NITROXOLINE] | > 30 µM | > 30 µM | > 30 µM | – | – | 4.9 µM | > 30 µM | > 30 µM | > 30 µM |
| CN(C)CCCNc1c2ccccc2nc2cccc([N+](=O)[O-])c12 [NITRACRINE] | – | 0.76 µM | > 30 µM | > 30 µM | > 30 µM | 14 µM | – | – | – |
| CCC(=O)O[C@H]1CC[C@H]2[C@@H]3CCC4=CC(=O)CC[C@]4(C)[C@H]3CC[C@]12C [TESTOSTERONE PROPIONATE] | > 10 µM | > 10 µM | > 30 µM | > 30 µM | – | > 10 µM | – | – | – |
| CCCN[C@H]1CCc2nc(N)sc2C1 [PRAMIPEXOLE] | > 10 µM | > 10 µM | > 30 µM | – | > 30 µM | > 10 µM | – | – | – |
| CN1CCC(=C2c3ccccc3CCc3cccnc32)CC1 [AZATADINE] | – | 1.6 µM | > 30 µM | > 30 µM | > 30 µM | 0.0066 µM | – | – | – |
| CCOC(=O)C1=C(C)NC(C)=C(C(=O)OC)C1c1cccc([N+](=O)[O-])c1 (stereo not given) [NITRENDIPINE] | > 10 µM | > 10 µM | > 30 µM | > 30 µM | > 30 µM | – | – | – | – |
| CC(C)COCC(CN(Cc1ccccc1)c1ccccc1)N1CCCC1 (stereo not given) [BEPRIDIL] | > 10 µM | 28 µM | – | > 30 µM | > 30 µM | 8.6 µM | – | – | – |
| Cc1cc2cc3c(C)cc(=O)oc3c(C)c2o1 [TRIOXSALEN] | > 10 µM | > 10 µM | – | > 30 µM | – | – | – | – | – |
| CCCC(CCC)C(N)=O [VALPROMIDE] | – | > 10 µM | > 30 µM | > 30 µM | > 30 µM | > 10 µM | – | – | – |
